# Measured values from patent US20250381173A1, “Long-Lasting Anaesthetic Formulation” (BERTIE INTERNATIONAL AB, priority 2022, published 2025).
# “And” between values parts separate entries of the source, which are not always exact repeats. Equal entries are not always repeated.
# Tests used:
# [1] = Impurity analysis: 2,6-dimethylaniline (Impurity H) by UPLC-UV and UPLC-UV-MS; assay type: physicochemical
# Protocol: Qualitative LC-analyzes were performed on samples from the stage in the formulation procedure after ropivacaine was added. LC analyzes with ultraviolet light (UV) detection were performed on a Thermo Fischer Scientific Vanquish UPLC instrument employing a Waters BEH C18 1.7 um 2.1*150 mm chromatographic column at 0.3 mL/min flow rate and otherwise method according to European pharmacopoeia 11.1, monograph 01/2017:2335 ‘Ropivacaine Hydrochloride Monohydrate’.
# LC analyzes with UV and MS detection were carried out on a Waters Acquity UPLC Quattro Micro MS-instrument with electrospray ionisation (ESI) in positive-negative switching mode. The method used was based on monograph 01/2017:2335 as above, however, the mobile phase was changed to a MS-compatible one; instead of phosphate buffer 0.1% NH3/MeCN with gradient elution was used.
# One of the impurities of ropivacaine specified in the pharmacopeial monograph Eu Pharm 11.1, 01/2017:2335 as Impurity H, the carcinogenic 2,6-dimethylaniline, was analyzed in prepared formulations by LC-UV and LC-UV-MS against 2,6-dimethylaniline reference material.
# Specified Impurity H of ropivacaine of Ph. Eur. 11.1, 01/2017:2335-2,6-dimethylaniline—was not detected (<0.05 area-%), neither in the ropivacaine reference standard nor in the formulated samples of ropivacaine of microwave heated triethanolamine, as analyzed by UPLC-UV (240 nm) and UPLC-UV-MS (Full scan m/z 50-800). As such, it was concluded that 2,6-dimethylaniline is not produced in the treatment of a formulation of the present disclosure.
# female rats [2] = test: Local anesthesia pilot study, prick (sensitivity) test after one s.c. injection; assay type: in vivo, Sprague Dawley rats; conditions: data not shown
# Protocol: (§1) In order to evaluate administration of local anesthesia in a sensitivity test in female rats a pilot- and an efficacy study was performed.
# (§2) Sprauge Dawley rats (females, 10 weeks) were acquired from Janvier Europe. Rats were housed in the animal facility, Medicon Village, Lund, Sweden. The rats were kept at 12 h light/dark cycles in polystyrene cages (type III cages, 2-3 rats per cage) comprising wood shavings. The rats were fed with standard rodent diet and water ad libitum. The rats were acclimatized for approximately one week before initiation of the experiment. The rats were identified by a marking on the tail with a permanent marker day 1.
# Formulation of reference anesthesia ropivacaine, was prepared such that the pH of the composition and the concentration and dose of ropivacaine where essentially identical to the compositions of the invention. The concentration of Ropivacaine was 5 mg/ml in the formulation and was administered at a dose of 1 mg/kg bodyweight in 2 animals, 0.25 mg/kg bodyweight in 2 animals; and placebo PBS (phosphate buffered saline) in 2 animals. The vehicle and reference anesthesia were administrated s. c. (subcutaneous) in one single injection at time 0.
# The rats were shaved at the back and habituated to the experimental environment for 30 minutes prior to the testing. […] The rat's reaction in the form of wrinkling of the skin was evaluated by ocular inspection.
# female rats [3] = test: Local anesthesia efficacy test, prick test after one s.c. injection; assay type: in vivo, Sprague Dawley rats; conditions: 0.25 mg/kg s.c.
# Protocol: as §1, §2
# Formulation of reference anesthesia Ropivacaine, was prepared in the same way as for the pilot study.
# The rats were shaved at the back and habituated to the experimental environment for 30 minutes prior to the testing. The sensitivity test was performed at 6 different time points within 6 hours after administration of the test item (30 min, 1 h, 2 h, 3 h, 4 h, 5 h) by touching each rat with a needle. The rat's reaction in the form of wrinkling of the skin was evaluated by ocular inspection, giving each monitored response a value of 0 (no response) or 1 (response).
# sciatic nerve = test: In vivo test 3: sensitivity test (tweezer), motor and sensor block after s.c. injection close to the sciatic nerve; design: species or system Wistar albino rats
# Protocol: Male Wistar albino rats, weighing 200-250 g, obtained from SYLAB Experimental Animals Laboratory, were used in the experiments. The animals were kept in a 12 hour light-12 hour dark light period under standard conditions and fed with standard pellet water (ad libitum). All studies were carried out in accordance with international ethical rules, without abusing animal rights.
# Formulations used were the same as in Example 2, with additional storage. The formulations were stored for 7 months at different temperatures. At first, the formulations were stored in the freezer for 6 months. Thereafter there were alterations in temperature storage; the formulations were iteratively stored in room temperature and in the fridge before use.
# The compositions were administrated s. c. in one single injection at time 0. The compositions were administrated to a position in close proximity to the sciatic nerve. • Group 1: Ropivacaine 7.5 mg/ml, 1.1-1.2 ml. Total=at least 8.25 mg ropivacaine. This composition is commercial ropivacaine (Ropivacaina Inibsa, injectable solution). • Group 2: Ropivacaine 4 mg/ml, 2 ml, pH 5 (Test 1). Total=8 mg ropivacaine.
# The sensitivity test was performed at 9 different time points within 9 hours after administration of the test item (1 h, […], 2 h, 3 h, 4 h, 5 h, 6 h, 7 h, 8 h and 9 h) by touching each rat with a tweezer. The rat's reaction in the form of wrinkling of the skin was evaluated by ocular inspection, giving each monitored response a value of 0 (no response), 0.5 (low response) or 1 (response).
# [4] = individual rat, score 0, 0.5 or 1, 0 h
# [5] = individual rat, score 0, 0.5 or 1, 1 h
# [6] = individual rat, score 0, 0.5 or 1, 2 h
# [7] = individual rat, score 0, 0.5 or 1, 3 h
# [8] = individual rat, score 0, 0.5 or 1, 4 h
# [9] = individual rat, score 0, 0.5 or 1, 5 h
# [10] = individual rat, score 0, 0.5 or 1, 6 h
# [11] = individual rat, score 0, 0.5 or 1, 7 h
structure (smiles),measurement,setting,value
"CCCN1CCCC[C@H]1C(=O)Nc1c(C)cccc1C [Ropivacaine, ropivacaine]","Impurity H (2,6-dimethylaniline), UPLC-UV-MS",[1]; Full scan m/z 50-800,Not detected
same,"Impurity H (2,6-dimethylaniline), UPLC-UV",[1]; UV 240 nm,Not detected
same,"2,6-dimethylaniline (Impurity H) level","[1]; not detected, UPLC-UV (240 nm) and UPLC-UV-MS",< 0.05 area-%
same,duration of the anesthetic effect,female rats [2]; 0.25 mg/kg bodyweight s.c.,2 h
same,duration of the anesthetic effect,female rats [2]; 1 mg/kg bodyweight s.c.,5 h
same,Average value of first response,female rats [3]; group of 3 rats,1.8 h
same,"Prick test response, 0.5 h","female rats [3]; individual rat, 0 = no response (anesthesia), 1 = response, 0.5 mg/ml, 0.5 h, 0.25 mg/kg",0 (2×) and 1
same,"Prick test response, 1 h","female rats [3]; individual rat, 0 = no response (anesthesia), 1 = response, 1 h, 0.25 mg/kg",0 (2×) and 1
same,"Prick test response, 2 h","female rats [3]; individual rat, 0 = no response (anesthesia), 1 = response, 2 h, 0.25 mg/kg",1 (2×) and 0
same,"Prick test response, 3 h","female rats [3]; individual rat, 0 = no response (anesthesia), 1 = response, 3 h",1
same,"Prick test response, 4 h","female rats [3]; individual rat, 0 = no response (anesthesia), 1 = response, 4 h, 0.25 mg/kg",1 (2×) and 0
same,"Prick test response, 5 h","female rats [3]; individual rat, 0 = no response (anesthesia), 1 = response, 5 h",1
same,"Loss Motor block, average",sciatic nerve; group average,3.3 h
same,"loss of Sensor block, average",sciatic nerve; group average,4.3 h
same,Loss Motor block,sciatic nerve; individual rat,4 h (4×) and 3 h (2×)
same,loss of Sensor block,sciatic nerve; individual rat,6 h (2×) and 3 h (2×) and 4 h (2×)
same,"Motor Block, test time 0 h",sciatic nerve; [4],1 (5×) and 0.5
same,"Sensor Block, test time 0 h",sciatic nerve; [4],1
same,"Motor Block, test time 1 h",sciatic nerve; [5],1 (5×) and 0.5
same,"Sensor Block, test time 1 h",sciatic nerve; [5],1
same,"Motor Block, test time 2 h",sciatic nerve; [6],1 (4×) and 0.5 (2×)
same,"Sensor Block, test time 2 h",sciatic nerve; [6],1
same,"Motor Block, test time 3 h",sciatic nerve; [7],0.5 and 0 (3×) and 1 (2×)
same,"Sensor Block, test time 3 h",sciatic nerve; [7],1 (4×) and 0 (2×)
same,"Motor Block, test time 4 h",sciatic nerve; [8],0
same,"Sensor Block, test time 4 h",sciatic nerve; [8],1 and 0 (4×) and 0.5
same,"Motor Block, test time 5 h",sciatic nerve; [9],0
same,"Sensor Block, test time 5 h",sciatic nerve; [9],1 and 0 (2×) and 0.5
same,"Motor Block, test time 6 h",sciatic nerve; [10],0
same,"Sensor Block, test time 6 h",sciatic nerve; [10],0
same,"Motor Block, test time 7 h",sciatic nerve; [11],0
same,"Sensor Block, test time 7 h",sciatic nerve; [11],0
